“Also recorded” adds a separate entry of the source.
Key:
[1] = system: atypical teratoid rhabdoid tumors (ATRTs); test: ATRT cell self-renewal; assay type: cell-based
Text: FIG. 24A is a series of photographs showing control or EZH2 inhibitor-treated (DNZep-treated) atypical teratoid rhabdoid tumors (ATRTs) at 1, 3, 5, and 7 days post-treatment.
FIG. 24D is a series of photographs showing control or EZH2 inhibitor-treated (DNZep-treated) atypical teratoid rhabdoid tumors (ATRTs) at 3, 5, 8 and 10 days post-treatment.

BT-16 ATRT cell line = test: Surviving fraction after 2Gy radiation, BT-16; assay type: cell-based; conditions: FIG. 25A
Text: FIG. 25A is a pair of graphs showing a surviving fraction of untreated or DZNEP-treated ATRT cells (from a BT-16 ATRT cell line) exposed to 2Gy radiation. Inhibition of EZH2 radio-sensitizes ATRT.

UPN737 ATRT cell line = test: Surviving fraction after 2Gy radiation, UPN737; assay type: cell-based; conditions: FIG. 25B
Text: FIG. 25B is a pair of graphs showing a surviving fraction of untreated or DZNEP-treated ATRT cells (from a UPN737 ATRT cell line, “737”) exposed to 2Gy radiation. Inhibition of EZH2 radio-sensitizes ATRT.

medulloblastoma cells = test: Medulloblastoma cell growth (total cells per milliliter over time); assay type: cell-based; conditions: for medulloblastoma cell growth (total cells per milliliter): as a function of time (days), FIGS. 26A-26C
Text: The total cells per milliliter of culture were counted each day for 10 days.

[2] = system: LNCAP prostate cancer cells; test: LNCAP cell growth inhibition in vitro; assay type: cell-based; conditions: FIG. 7A
[3] = system: ATRX mutant SCLC lines NCI-H446, SW1271 and NCI-H841; test: Response of ATRX mutant SCLC lines; assay type: cell-based; conditions: FIGS. 8A-8C
Text: FIGS. 8A-8C are three graphs establishing that ATRX mutant SCLC lines NCI-H446 (FIG. 8A), SW1271 (FIG. 8B) and NCI-H841 (FIG. 8C) are responding to Compound D.

[4] = system: G401 SNF mutant cell line; test: Soft agar growth of G401 versus RD cells; assay type: cell-based; conditions: after 7 days in soft agar, compared to wild type cells RD; FIGS. 3A-3D
Text: FIGS. 3A-3D are a series of bar graphs showing that G401 SNF mutant cell line is responding to Compound D after 7 days in soft agar compared to wild type cells RD.

[5] = system: SNF5 mutant cell lines A204, G401 and G402; test: Response of SNF5 mutant versus wild type cell lines to EZH2 compound; assay type: cell-based; conditions: compared to wild type cell lines RD and SJCRH30; FIGS. 2A-2E
SCLC line NCI-H841 = test: Microscopy of cell morphology; assay type: cell-based; conditions: 4.1E-02 uM or 3.3 uM; FIGS. 9A-9C
[6] = system: G401 SNF5 mutant cell line; test: CellTiter-Glo Luminescent Cell Viability Assay after 7 days pretreatment; assay type: cell-based; conditions: pretreated for 7 days, replated on day 0; FIGS. 4A-4D
Procedure: FIGS. 4A-4D are four graphs showing that G401 SNF5 mutant cell line is sensitive to Compound A in vitro. Wild type cell line SJCRH30 (FIG. 4A) and RD (FIG. 4C) and SNF5 mutant cell line G401 (FIG. 4B) and A204 (FIG. 4D) were pretreated for 7 days with indicated concentrations of Compound A and replated on day 0. Cell viability was determined by CellTiter-Glo® Luminescent Cell Viability Assay.

[7] = system: SMARCB1-deleted MRT cells; test: Cell cycle analysis (flow cytometry) and apoptosis (TUNEL assay); assay type: cell-based; conditions: 1 μM, up to 14 days, FIG. 13
Procedure: Cell cycle analysis (by flow cytometry) and determination of apoptosis (by TUNEL assay) in RD (FIG. 13A) or G401 cells (FIG. 13B) during incubation with either vehicle or 1 μM Compound A for up to 14 days. G1 arrest was observed as of day 7 and apoptosis was induced as of day 11. Data are represented as mean values±SEM (n=2). The DMSO control values shown are the average±SEM from each time point. Cells were split and re-plated on days 4, 7 and 11 at the original seeding density.

[8] = system: cellular H3K27Me3 levels in G401 and RD cells; test: Cellular histone methylation (immunoblot of acid-extracted histones); assay type: cell-based
Procedure: FIGS. 10A-10F are a series of graphs showing effects of Compound A on cellular global histone methylation and cell viability.
FIG. 12A: Cell lysates were analyzed by immunoblot with antibodies specific to SMARCB1, EZH2 and Actin (loading control). […] Cells were incubated with Compound A for 4 days, and acid-extracted histones were analyzed by immunoblot.

ATRT = ATRT survival in vivo; conditions: versus vehicle; FIG. 29A
G401 xenografts = test: G401 xenograft (malignant rhabdoid tumor model); assay type: in vivo, SCID mice
Procedure: Data represent the mean values±SEM (n=8). Compound administration was stopped on day 28. FIG. 5C: EZH2 target inhibition in G401 xenograft tumor tissue collected from a parallel cohort of mice on day 21. […] Horizontal lines represent group mean values. BLLQ=below lower limit of quantification. FIGS. 5D and 5E show Immunohistochemical staining of tumor histone methylation of tumor samples from the vehicle treated (FIG. 5D) and Compound A treated (FIG. 5E) (at 125 mg/kg) mice.
Data are presented as mean values±SEM (n=16 until day 21, n=8 from day 22 to 60). […] FIG. 15C: Tumor weights of 8 mice euthanized on day 21. ****p<0.0001, Fisher's exact test. FIG. 15D: Plasma was collected 5 min before and 3 h after dosing of Compound A on day 21, and compound levels were measured by LC-MS/MS. Animals were euthanized, and tumors were collected 3 h after dosing on day 21. Tumor homogenates were generated and subjected to LC-MS/MS analysis to determine Compound A concentrations. Note that tumor compound levels could not be determined from all animals especially in the higher dose groups because the xenografts were too small on day 21. Dots represent values for the individual animals; horizontal lines represent group mean values.
FIGS. 16A-16F are a series of graphs showing that Compound A eradicates SMARCB1-deleted MRT xenografts in SCID mice. […]

SMARCB1 regulated genes = test: Gene expression by qPCR; assay type: cell-based; conditions: G401 and RD cells, 1 μM, 2, 4 and 7 days; FIGS. 14A-14L
Procedure: FIG. 14A: Basal expression of SMARCB1 regulated genes in G401 SMARCB1-deleted cells, relative to RD control cells (measured by qPCR, n=2). FIGS. 14B-14K: G401 and RD cells were incubated with either DMSO or 1 μM Compound A for 2, 4 and 7 days. Gene expression was determined by qPCR (n=2) and is expressed relative to the DMSO control of each time point. FIGS. 14B-14K correspond to genes GLI1, PTCh1, DOCK4, CD133, PTPRK, BIN1, CDKN1A, CDKN2A, EZH2, and MYC, respectively. FIG. 14L: G402 cells were incubated with either DMSO (left panel) or 1 μM Compound A (right panel) for 14 days. Cells were split and re-plated to the original seeding density on day 7.

[9] = system: primary medulloblastoma cells
Procedure: FIG. 28A is a schematic diagram depicting the process by which primary medulloblastoma cell growth is evaluated ex vivo.
A slice culture of medulloblastoma was freshly isolated from a subject.
A patient having medulloblastoma underwent surgery to remove a slice of tumor tissue for testing. The medulloblastoma slice was cultured ex vivo on tissue supporting inserts (FIG. 28A). […] Following the treatment period, the cells of the slice culture were treated with BrdU for 4 hours prior to disaggregation and sorting by flow cytometry.

Oral bioavailability = conditions: in vivo
[10] = 500 nM or 2 μM, 4 days, compared to untreated control

## Nc1nccc2c1ncn2C1C=C(CO)C(O)C1O (stereo not shown) [DNZep]
[1]; 1, 3, 5, and 7 days post-treatment, FIG. 24A
  ATRT cell self-renewal: suppresses ATRT cell self-renewal
[1]; 3, 5, 8 and 10 days post-treatment, FIG. 24D
  ATRT cell self-renewal: suppresses ATRT cell self-renewal
BT-16 ATRT cell line
  radio-sensitization (surviving fraction): radio-sensitizes
UPN737 ATRT cell line
  radio-sensitization (surviving fraction): radio-sensitizes

## CC[C@H](C)n1cc(C)c2c(C(=O)NCc3c(C)cc(C)[nH]c3=O)cc(-c3ccc(N4CCNCC4)nc3)cc21 [GSK-126, reference compound]
Medulloblastoma cells
  medulloblastoma cell growth (total cells per milliliter): decrease medulloblastoma cell growth

## CCCc1cc(C)[nH]c(=O)c1CNC(=O)c1cc(-c2ccc(N3CCN(C(C)C)CC3)nc2)cc2c1cnn2C(C)C [UNC 1999, reference compound]
Medulloblastoma cells
  medulloblastoma cell growth (total cells per milliliter): decrease medulloblastoma cell growth

## CCN(c1cc(-c2ccc(CN3CCOCC3)cc2)cc(C(=O)NCc2c(C)cc(C)[nH]c2=O)c1C)[C@H]1CC[C@H](N(C)C)CC1 [Compound D]
[2]
  cell growth inhibition: dose-dependent cell growth inhibition
[3]
  response of cell lines: responding
[4]
  response in soft agar: responding
[5]
  response of cell lines to EZH2 compound: selectively respond
SCLC line NCI-H841
  cell morphology: changes morphology

## CCN(c1cc(-c2ccc(CN3CCOCC3)cc2)cc(C(=O)NCc2c(C)cc(C)[nH]c2=O)c1C)C1CCOCC1 [tazemetostat]
[6]
  cell viability (sensitivity in vitro): sensitive
[7]; TUNEL
  day as of which apoptosis was induced: 11 days
[7]
  day as of which G1 arrest was observed: 7 days
[8]; 4 days incubation, immunoblot, FIG. 12B
  inhibition of cellular H3K27 methylation (specificity): Selective inhibition of cellular H3K27 methylation
[8]; FIG. 10B
  inhibition of cellular H3K27Me3 levels: Concentration-dependent inhibition
ATRT
  percent survival / ATRT in vivo: decreases ATRT in vivo
G401 xenografts; administration stopped on day 28, FIGS. 5A-5B
  tumor regression: durable regressions
G401 xenografts; twice daily (BID) for 21 days, FIG. 15B
  tumor regression: Tumor regressions induced
SMARCB1 regulated genes
  expression of SMARCB1 regulated genes: induces changes in expression
[9]; [10]
  proportion of cells in the G0/G1 stage: increased proportion
  proportion of cells in the G2/M stage: decreased proportion
[9]; slice culture treated 4 days, FIG. 28B
  primary medulloblastoma cell growth ex vivo (cell cycle stages): decreases primary medulloblastoma cell growth ex vivo
[9]; slice culture treated 4 days, FIG. 28C
  primary medulloblastoma cell growth ex vivo (BrdU): decreases primary medulloblastoma cell growth ex vivo
Oral bioavailability
  oral bioavailability: orally bioavailable
Medulloblastoma cells; 0.5 μM, 2 μM and 6 μM, counted each day for 10 days, FIG. 26C
  medulloblastoma cell growth versus negative control (DMSO): significant decrease
Medulloblastoma cells; GSK-126, UNC 1999 and tazemetostat, FIG. 26D
  effect on medulloblastoma cell growth compared with the other small molecule inhibitors tested: superior ability to decrease medulloblastoma cell growth; also recorded: greatest effect
Medulloblastoma cells
  medulloblastoma cell growth (total cells per milliliter): decrease medulloblastoma cell growth

Reference: patent US20200268765A1, “METHOD OF TREATING MEDULLOBLASTOMA WITH AN EZH2 INHIBITOR” (Epizyme, Inc., priority 2015, published 2020)
